Measured values taken from PMC9238327, “RG100204, A Novel Aquaporin-9 Inhibitor, Reduces Septic Cardiomyopathy and Multiple Organ Failure in Murine Sepsis” (Frontiers in Immunology, 2022).

Key:
Aquaporin 9 (AQP9) [1] = molecular target: T1, Aquaporin 9 (AQP9) (Mus musculus, UniProt Q9JJJ3); experiment: water and glycerol permeability in CHO cells expressing mouse AQP9 (calcein fluorescence); type: cell-based
T1 sequence (Q9JJJ3 1-295): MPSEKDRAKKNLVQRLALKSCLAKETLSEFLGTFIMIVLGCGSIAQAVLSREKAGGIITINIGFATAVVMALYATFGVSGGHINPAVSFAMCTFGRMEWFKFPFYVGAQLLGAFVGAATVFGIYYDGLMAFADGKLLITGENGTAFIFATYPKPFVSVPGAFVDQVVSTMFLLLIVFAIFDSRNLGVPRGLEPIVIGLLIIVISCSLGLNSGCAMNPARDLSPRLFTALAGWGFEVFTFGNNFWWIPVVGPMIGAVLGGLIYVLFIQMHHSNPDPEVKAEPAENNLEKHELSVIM

Aquaporin 9 (AQP9) [2] = molecular target: T1, Aquaporin 9 (AQP9); experiment: glycerol, water and H2O2 permeability in CHO cells expressing mouse AQP9 (calcein / HyPer-3 fluorescence); type: cell-based

| IC50 (Aquaporin 9 (AQP9) [1]) | IC50 (Aquaporin 9 (AQP9) [2]) | SMILES |
| --- | --- | --- |
| ~720 nM |  | O=C(CCc1ccc(O)cc1)c1c(O)cc(O)cc1O [Phlor, phloretin] |
|  | ~76 nM | CCn1c(SCC(=O)Nc2nnc(-c3ccc(OC(C)C)cc3)s2)nnc1C(C)C [RG, RG100204] |
